Where a SMILES comes first, the peptide text is derived from it.
Experiments:
[1] = tested on: Scopolamin-induzierte Amnesie; experiment: radial-maze test (8-arm radial maze), reversal of scopolamine-induced amnesia; format: in vivo, Ratten; settings: Rattus norvegicus, po, rats, comparison compound, read-out: MED (minimal effektive Dosis)
Text: (§1) Die erfindungsgemäße Verbindung ist aufgrund ihrer pharmakologischen Eigenschaften für die Behandlung cognitiver Dysfunktionen unterschiedlicher Genese, wie sie z.B. bei der Alzheimer'schen Krankheit oder der senilen Demenz auftreten, geeignet. Die Verbesserung cognitiver Funktionen durch die erfindungsgemäßen Verbindungen (nootrope Wirkung) wurde im Tierexperiment an Mäusen mittels des inhibitory (passive) avoidance-Tests (step-through-Modell) und an Ratten mittels des radial-maze-Tests (8-armiger radialer Irrgarten) geprüft. Es handelt sich hierbei um literaturbeschriebene Standardtests zur Prüfung von Lern-und Gedächtnisfunktionen im Tierexperiment. (Inhibitory avoidance J. Bures, O. Buresova und J. Huston in "Techniques and Basic Experiments for the Study of Brain and Behavior", Elsevier Scientific Publishers, Amsterdam 1983; Radial Maze: U. Stäubli, M. Baudry und G. Lynch, Behavioral and Neural Biology 40, 58-69 (1984).)
(§2) Entsprechend den genannten Literaturangaben wird eine Substanz dann als nootrop wirksam bezeichnet, wenn sie bei den Versuchstieren der durch Scopolamin, Elektroschock oder Inhibitoren der Proteinsynthese induzierte Erhöhung der Fehlerrate in diesen Tests entgegenwirkt oder sie gar aufzuheben vermag.
(§3) Die Versuche wurden nach den obenbeschriebenen Testverfahren durchgeführt. […]

[2] = tested on: Scopolamin-induzierte Amnesie; experiment: inhibitory (passive) avoidance test (step-through model), reversal of scopolamine-induced amnesia; format: in vivo, Mäusen; settings: Mus musculus, po, mice, comparison compound, read-out: MED (minimal effektive Dosis)
Text: as §1, §2, §3

[3] = stability in water at 80°C for 8 days, checked by HPLC; format: physicochemical; settings: 200 mg in 20 ml water, 8 days at 80°C, freeze-dried, HPLC detection at 220 nm
Experimental: • a) 200 mg Ac-Met(O₂)-Glu-His-Phe-D-Lys-Phe-NH(CH₂)₈-NH₂ · 2 CH₃COOH wurden in 20 ml Wasser gelöst und 8 Tage auf 80°C erhitzt. Nach dem Abkühlen wurde gefriergetrocknet.

Structure (SMILES) | minimal effective dose [1] | minimal effective dose [2] | Zersetzung (HPLC-Untersuchung) [3]
NC(=O)CN1CCCC1=O [Piracetam, 2-Oxo-1-pyrrolidinylessigsäureamid] | 500 to 1000 mg/kg | 500 to 1000 mg/kg | 
CC(=O)N[C@@H](CCS(C)(=O)=O)C(=O)N[C@@H](CCC(=O)O)C(=O)N[C@@H](Cc1c[nH]cn1)C(=O)N[C@@H](Cc1ccccc1)C(=O)N[C@H](CCCCN)C(=O)N[C@@H](Cc1ccccc1)C(=O)NCCCCCCCCN [Ac-Met(O₂)-Glu-His-Phe-D-Lys-Phe-NH-(CH₂)₈-NH₂ · 2 CH₃COOH] (HELM PEPTIDE1{[ac].[CS(=O)(=O)CC[C@H](N[*:1])C(=O)[*:2]].E.H.F.[dK].F.[NCCCCCCCCN[*:1]]}$$$$V2.0) |  |  | keine Zersetzung
CS(=O)(=O)CC[C@H](N)C(=O)N[C@@H](CCC(=O)O)C(=O)N[C@@H](Cc1c[nH]cn1)C(=O)N[C@@H](Cc1ccccc1)C(=O)N[C@H](CCCCN)C(=O)N[C@@H](Cc1ccccc1)C(=O)NCCCCCCCCN [H-Met(O₂)-Glu-His-Phe-D-Lys-Phe-NH-(CH₂)₈-NH₂] (HELM PEPTIDE1{[CS(=O)(=O)CC[C@H](N)C(=O)[*:2]].E.H.F.[dK].F.[NCCCCCCCCN[*:1]]}$$$$V2.0) |  |  | starke Zersetzung

Source: patent EP0424670B1, “ZNS-active hexapeptides with antiamnestic activity” (HOECHST AKTIENGESELLSCHAFT, priority 1989, dated 1995)
